One compound from ChEMBL document CHEMBL1649554, “Specific therapeutic schemes of omeprazole affect the orientation of Helicobacter pylori” (Antimicrob Agents Chemother, 2009) can be followed below.

Calls of active or inactive are those of the source. The rule behind the calls is not given here.

In test [1] the test system is Helicobacter pylori. As to the kind of experiment: Antibacterial activity against Helicobacter pylori SS1 infected in Mongolian gerbils assessed as bacterial density in mucus in central mucus layer at 0.25 mg, ip followed by second dose administered as solvent in 24 hrs dosing interval measured after 90 mins post last dose (reference value: 90+/-60 bacteria per nl of mucus). It is filed as functional.

Test [2] deals with Helicobacter pylori. As to the kind of experiment: Antibacterial activity against Helicobacter pylori SS1 infected in Mongolian gerbils assessed as bacterial disorientation in luminal mucus layer at 0.25 mg, ip followed by second dose administered as solvent in 24 hrs dosing interval measured after 90 mins post last dose. It is filed as functional, organism-based.
In test [3] the test system is Helicobacter pylori. As to the kind of experiment: Antibacterial activity against Helicobacter pylori SS1 infected in Mongolian gerbils assessed as bacterial disorientation in central mucus layer at 0.25 mg, ip administered as two doses in 8 hrs dosing interval measured after 90 mins post last dose. It is filed as functional, organism-based.

Turning to `COc1ccc2[nH]c([S+]([O-])Cc3ncc(C)c(OC)c3C)nc2c1` (stereo not drawn) [OMEPRAZOLE], the Activity in test [1] stood at 140 nL⁻¹. In addition, the result in test [2] and in test [3] was inactive.
